Data: US7091369B2, “Synthesis of polyconjugated fatty acids” (Board of Trustees Operating Michigan State University, priority 2003, dated 2006)

What was measured:
[1] = spontaneous isomerisation at room temperature monitored by HPLC; assay type: physicochemical
From the text: The main difference between the spectra is the hypsochromic shift of the Compound 2 peak maxima of about 3 nm.

[2] = tested on: HEK293 cells

Structure (SMILES) | stability (geometrical isomerisation) [1] | oxidative metabolism [2] | elongation to a 22 carbon fatty acid ([2]; compared with AA or EPA) | cellular uptake and assimilation into complex lipids ([2]; fractionation of organic extracts on aminopropyl columns)
CC/C=C\C/C=C\C\C=C/C=C/C=C/C=C/CCCC(=O)O [Compound 1, 5E,7E,9E,11Z,14Z,17Z-eicosahexaenoic acid] | spontaneous room temperature conversion of Compound 1 to Compound 2 | – | – | –
CC/C=C\C/C=C\C/C=C/C=C/C=C/C=C/CCCC(=O)O [5E,7E,9E,11E,14Z,17Z-eicosahexaenoic acid] | – | appears to be oxidized through a monooxygenation system in HEK293 cells, and the products released to the medium | appeared not to be elongated efficiently to a 22 carbon fatty acid | taken up by the cells and assimilated into complex lipids
